Data taken from EP2435019B1, “DODECA-2E,4E-DIENE AMIDES AND THEIR USE AS MEDICAMENTS AND COSMETICS” (Dr. August Wolff GmbH & Co. KG Arzneimittel, priority 2009, dated 2010).

What was measured:
CB1 = target: T1, CB1 (Homo sapiens, UniProt P21554); assay: Radioligand displacement assay on CB1 receptor; format: binding; details: for affinity towards CB1 (in words): summary of Table 3
T1 construct: purchased Perkin Elmer RBHCB1M
Method: (§1) For the CB1 receptor, binding experiments were performed in the presence of 0.39 nM of the radioligand [^3H]CP55,940 (168 Ci/mmol) (Perkin Elmer, Waltham, MA, US) at 30°C in siliconized glass vials together with 7.16 µg of membrane recombinantly over-expressing CB1 (No. RBHCB1M, Perkin Elmer, Waltham, MA, US), which was resuspended in 0.2 mL (final volume) binding-buffer (50 mM TRIS-HCl, 2.5 mM EGTA, 5 mM MgCl2, 0.5 mg/mL fatty acid free BSA, pH 7.4). Test compounds were present at varying concentrations and the nonspecific binding of the radioligand was determined in the presence of 10 µM CP55,940 (Tocris Cookson Ltd., Bristol, UK). After 1.5 h incubation, the suspension was rapidly filtered through 0.05% polyethylenimine pre-soaked GF/C glass fiber filters on a 96-well cell harvester and washed nine times with 0.5 mL ice-cold washing-buffer (50 mM TRIS-HCl, 2.5 mM EGTA, 5 mM MgCl2, 2% BSA, pH 7.4). Radioactivity on filters was measured with a Beckman LS 6500 scintillation counter in 3 mL Ultima Gold scintillation liquid (Perkin Elmer, Waltham, MA, US). Data collected from three independent experiments performed in triplicates were normalized between 100% and 0% specific binding for [^3H]CP55,940. […] Derived from the dissociation constant (KD) of [^3H]CP55,940 and the concentration-dependent displacement (IC50 value), inhibition constants (Ki) of competitor compounds were calculated using the Cheng-Prusoff equation [Ki = IC50/(1+ L/KD)].

[1] = Critical micelle concentration (CMC) measurement, dye micellization; format: physicochemical; details: fluorescein dye micellization in water, pH 6.9, room temperature
Method: Dye micellization was carried out with a modified version of the method described by Eliyahu et al., Novel dextran-spermine conjugates as transfecting agents: comparing water-soluble and micellar polymers. […] Experiments were carried out on 96-well microtiter plates (excitation at 485 nm, emission at 535 nm). Since the emission of fluorescein is pH-dependent, the pH of the mixture was kept constant at 6.9. The CMC range was determined as the concentration range where the first statistically significant increase in fluorescence was detected.

[2] = tested on: Arachidonoylethanolamide Transport (AEAT); assay: Cellular uptake of [3H]-AEA in U937 cells (assay C); format: cell-based; details: Homo sapiens, U-937; [3H]-AEA uptake, assay C (Tables 2 and 3)
FAAH = target: T2, FAAH (Sus scrofa, UniProt Q9TUI8); assay: Fatty acid amide hydrolase (FAAH) inhibition, pig brain homogenate (assay D); format: biochemical; details: for FAAH inhibition at 1 µM: pig brain homogenate (assay D)
T2 construct: 165 µl of diluted pig brain homogenate; from tissue; host or cells: pig brain homogenate
T2 sequence (Q9TUI8 1-579): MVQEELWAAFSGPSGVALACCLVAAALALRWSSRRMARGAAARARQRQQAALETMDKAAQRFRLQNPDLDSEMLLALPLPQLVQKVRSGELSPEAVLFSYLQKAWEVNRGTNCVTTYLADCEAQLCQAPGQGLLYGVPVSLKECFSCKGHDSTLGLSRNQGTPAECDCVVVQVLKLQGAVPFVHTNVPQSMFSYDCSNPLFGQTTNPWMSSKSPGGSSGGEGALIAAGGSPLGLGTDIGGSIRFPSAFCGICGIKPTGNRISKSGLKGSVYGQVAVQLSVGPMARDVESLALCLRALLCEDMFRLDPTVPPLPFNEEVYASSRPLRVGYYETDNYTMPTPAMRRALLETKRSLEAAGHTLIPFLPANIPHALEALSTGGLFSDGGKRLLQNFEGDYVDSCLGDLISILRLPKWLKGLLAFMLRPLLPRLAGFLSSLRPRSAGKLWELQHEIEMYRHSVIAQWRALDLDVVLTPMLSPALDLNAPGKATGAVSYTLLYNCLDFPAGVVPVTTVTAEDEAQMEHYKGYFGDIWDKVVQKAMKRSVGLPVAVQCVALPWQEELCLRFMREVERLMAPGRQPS
Method: FAAH activity was assessed using pig brain homogenate according to the method described by Omeir et al., Arachidonoyl ethanolamide-[1,2-14C] as a substrate for anandamide amidase. Life Sci. 1995;56(23-24):1999-2005, and adapted by Fowler et al., Ibuprofen inhibits rat brain deamidation of anandamide at pharmacologically relevant concentrations. Mode of inhibition and structure-activity relationship. J Pharmacol Exp Ther. 1997 Nov;283(2):729-34. Briefly, 10 µl of test compounds at the adequate concentration or solvent were incubated at 37°C for 20 min with 165 µl of diluted pig brain homogenate in 10 mM Tris-HCl and 1 mM EDTA, pH 7.6 (corresponding to 100 µg/ml of total protein), 1% w/v fatty acid free BSA (Sigma, San Louis, MO, US) and 25 µl of a mixture 1:1 of nonradioactive AEA [^3H]-AEA (60 Ci mmol^-1) (concentration in the assay was 2 µM). Successively, 400 µl of a mixture 1:1 (v/v) of methanol:chloroform was added at each sample and, after vigorous vortexing, aqueous and organic phases were separated by centrifugation at 10000 rpm for 10 min. The radioactivity associated to the [^3H]-ethanolamine (produced by FAAH-catalysed breakdown of [^3H]-AEA) was measured upon addition of 3 ml of Ultima Gold scintillation liquid (Perkin Elmer, Waltham, MA, US) to 200 µl of the aqueous (upper) phase, using a Beckman LS6500 scintillation counter. Results were expressed as % of FAAH activity vs. pig brain homogenate treated only with solvent.

CB2 = CB2 (Homo sapiens, UniProt P34972); assay: Radioligand displacement assay on CB2 receptor; format: binding; parameters: purchased Perkin Elmer RBXCB2M; details: for affinity towards CB2 (in words): summary of Table 3
Method: as §1
For CB2-receptor binding studies 3.8 µg of membrane recombinantly over-expressing CB2 (No. RBXCB2M, Perkin Elmer, Waltham, MA, US) were resuspended in 0.6 mL binding buffer (see above) together with 0.11 nM of the radioligand [^3H]CP55,940. The CB2-binding assay was conducted in the same manner as for CB1.

Anandamide transport = Anandamide transport (human) cellular functional assay (assay F); format: cell-based; details: human U-937 cells, 0.1 µM [3H]-Anandamide, 20 min (assay F)
Method: Anandamide transport is determined using human U-937 cells as receptor source. [3H]-Anandamide (0.1 Ci/mmol), final concentration 0.1 µM is used as substrate. AM-404 is used as reference compound. Reactions are carried out in KRH buffer (pH 7.4) at 37°C for 20 min. The reaction is terminated by rapid vacuum filtration onto glass fiber filters. Radioactivity trapped onto filters is determined and compared to control values in order to ascertain any interactions of test compound with anandamide uptake (Hiiliard C.J. The movement of N-arachidonylethanolamide (anandamide) across cellular membranes. Chem. Physics Lipids. 2008;108:123-134, with modifications).

[3] = target: T3, human recombinant Fatty acid amide hydrolase (Homo sapiens, UniProt O00519); assay: Inhibition of human recombinant FAAH, fluorometric method (assay G); format: biochemical; details: human recombinant enzyme, AMC-anandamide substrate (assay G)
T3 sequence (O00519 1-579): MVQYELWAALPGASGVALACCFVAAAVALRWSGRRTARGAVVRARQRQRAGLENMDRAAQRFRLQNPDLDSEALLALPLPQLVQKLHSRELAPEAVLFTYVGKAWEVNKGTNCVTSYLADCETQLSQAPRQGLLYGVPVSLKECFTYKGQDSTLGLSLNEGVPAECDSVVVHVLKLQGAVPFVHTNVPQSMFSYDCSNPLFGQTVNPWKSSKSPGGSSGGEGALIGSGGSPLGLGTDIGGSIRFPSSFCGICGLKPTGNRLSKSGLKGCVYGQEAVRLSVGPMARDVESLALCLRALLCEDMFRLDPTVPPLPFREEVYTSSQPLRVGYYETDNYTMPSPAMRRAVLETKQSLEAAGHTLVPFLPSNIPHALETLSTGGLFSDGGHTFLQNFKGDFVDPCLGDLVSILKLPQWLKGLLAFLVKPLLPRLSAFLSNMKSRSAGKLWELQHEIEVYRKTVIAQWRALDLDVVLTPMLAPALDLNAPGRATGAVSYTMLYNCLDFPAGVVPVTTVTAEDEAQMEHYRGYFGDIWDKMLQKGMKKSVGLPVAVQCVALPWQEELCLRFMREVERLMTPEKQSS
Method: FAAH activity is measured using the modified method described by Omeir et al., Arachidonoyl ethanolamide-[1,2-14C] as a substrate for anandamide amidase. Life Sci. 1995;56(23-24):1999-2005. Human recombinant enzyme is preincubated with reference compound (methylarachidonlyfluorophosphonate, MAFP) and test compounds for 30 min at room temperature in 50 mM Tris containing 1 mM EDTA and 0.1% fatty acid free BSA (pH 8.0). Substrate (7-amino-4-methyl coumarin-arachidonamide, AMC-anandamide) is then added and incubated for 30 min at room temperature. The reaction is stopped by the addition of 2.5 µl of 10 µM URB597. Released 7-amino-4-methyl coumarin (AMC) is detected by fluorometry in order to ascertain any interactions of test compounds with the FAAH enzyme.

T1 sequence (P21554 whole entry): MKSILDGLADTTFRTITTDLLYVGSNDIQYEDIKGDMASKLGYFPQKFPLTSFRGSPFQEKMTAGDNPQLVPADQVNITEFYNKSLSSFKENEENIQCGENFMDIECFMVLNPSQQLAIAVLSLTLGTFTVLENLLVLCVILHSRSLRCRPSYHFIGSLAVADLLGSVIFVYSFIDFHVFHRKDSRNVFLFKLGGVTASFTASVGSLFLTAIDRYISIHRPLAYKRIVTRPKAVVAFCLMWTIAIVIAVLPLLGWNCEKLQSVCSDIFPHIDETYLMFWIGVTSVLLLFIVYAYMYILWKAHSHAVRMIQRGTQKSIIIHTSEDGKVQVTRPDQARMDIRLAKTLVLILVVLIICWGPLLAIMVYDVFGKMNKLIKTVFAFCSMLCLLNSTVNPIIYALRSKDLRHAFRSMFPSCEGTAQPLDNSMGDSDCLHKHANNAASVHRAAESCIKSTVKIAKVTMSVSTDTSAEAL
CB2, sequence (P34972 whole entry): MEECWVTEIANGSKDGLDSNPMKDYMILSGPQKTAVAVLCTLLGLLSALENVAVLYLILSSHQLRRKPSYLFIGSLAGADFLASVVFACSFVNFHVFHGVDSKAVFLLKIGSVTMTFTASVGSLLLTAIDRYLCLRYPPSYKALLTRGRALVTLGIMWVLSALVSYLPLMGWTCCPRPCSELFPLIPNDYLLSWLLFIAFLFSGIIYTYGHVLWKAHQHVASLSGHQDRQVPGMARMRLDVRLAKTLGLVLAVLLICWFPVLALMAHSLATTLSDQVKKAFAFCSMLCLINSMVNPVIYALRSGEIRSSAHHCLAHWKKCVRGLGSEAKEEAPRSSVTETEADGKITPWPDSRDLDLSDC

| SMILES | AEAT inhibition at 1 µM (Anandamide transport) | FAAH inhibition at 1 µM [3] | other results |
| --- | --- | --- | --- |
| CCCCCCC/C=C/C=C/C(=O)NCC(C)CC (racemic) [Compound B, (2E,4E)-N-(2-methylbutyl)dodeca-2,4-diene amide] | – | – | Ki (CB1): 1510 ± 214 nM; affinity towards CB1 (in words) (CB1): moderate affinity; CMC [1]: >5 µM; EC50 [2]: > 10000 nM; FAAH inhibition at 1 µM (FAAH): <10 % of control; Ki (CB2): 1100 ± 84 nM; affinity towards CB2 (in words) (CB2): moderate affinity |
| CCCCCCC/C=C/C=C/C(=O)NCCC(C)C [Compound C, (2E,4E)-N-isopentyldodeca-2,4-diene amide] | – | – | Ki (CB1): > 20000 nM; affinity towards CB1 (in words) (CB1): no affinity; CMC [1]: >5 µM; EC50 [2]: > 10000 nM; FAAH inhibition at 1 µM (FAAH): <10 % of control; Ki (CB2): 1455 ± 14 nM; affinity towards CB2 (in words) (CB2): moderate affinity |
| CCCCCCC/C=C/C=C/C(=O)NCc1ccoc1 [Example 4, (2E,4E)-N-(furan-3-ylmethyl)dodeca-2,4-diene amide] | – | – | CMC [1]: < 3 µM; inhibition at 2 µM (FAAH; read-out: max. inhibition of FAAH activity): 40% |
| CCCCCCC/C=C/C=C/C(=O)NCc1cccn1C [Example 5] | – | – | CMC [1]: < 1 µM; inhibition at 1 µM (FAAH; read-out: maximal inhibition of FAAH activity): 32% |
| CCCCCCC/C=C/C=C/C(=O)NCc1ccc(OC)cc1 [Example 7, (2E,4E)-N-(4-methoxybenzyl)dodeca-2,4-diene amide] | 28 % of control | 6 % of control | effect on FAAH activity in combination with the FAAH inhibitor URB597 (FAAH; Figure 3, low nM concentrations): synergistic effects |
| CCCCCCC/C=C/C=C/C(=O)NCCc1ccco1 [Example 16] | 57 % of control | 42 % of control | EC50 [2]: 890 ± 400 nM |
| CCCCCCC/C=C/C=C/C(=O)NCCc1ccsc1 [Example 19] | 34 % of control | 53 % of control | EC50 [2]: 520 ± 470 nM |
| CCCCCCC/C=C/C=C/C(=O)Nc1nccs1 [Example 20] | 47 % of control | -16 % of control | EC50 [2]: 780 ± 250 nM |
| CCCCCCC/C=C/C=C/C(=O)Nc1ccccc1 [Example 24] | 30 % of control | 2 % of control | – |
| CCCCCCC/C=C/C=C/C(=O)NCc1ccccc1 [Example 25] | 47 % of control | 2 % of control | – |
| CCCCCCC/C=C/C=C/C(=O)Nc1nc2ccccc2s1 [Example 35] | 42 % of control | 61 % of control | – |
| CCCCCCC/C=C/C=C/C(=O)Nc1ccc(C2=NCCS2)cc1 [Example 37] | 38 % of control | 9 % of control | – |
| CCCCCCC/C=C/C=C/C(=O)NCc1nnn(C(=O)N(C)C)n1 [Example 39] | 120 % of control | 101 % of control | – |
| CCCCCCC/C=C/C=C/C(=O)NCC(C)O (stereo not drawn) [Example 41] | 27 % of control | 45 % of control | – |
| CCCCCCC/C=C/C=C/C(=O)NCCc1ccnc(OC)c1 [Example 47] | 50 % of control | 6 % of control | – |
| CCCCCCC/C=C/C=C/C(=O)NC(CO)Cc1cccs1 (stereo not drawn) [Example 49] | 25 % of control | 25 % of control | – |
| CCCCCCC/C=C/C=C/C(=O)NCC(O)c1ccc(OC)cc1 (stereo not drawn) [Example 56] | 36 % of control | -1 % of control | – |
| CCCCCCC/C=C/C=C/C(=O)NCCc1ccccn1 [Example 68] | 41 % of control | -2 % of control | – |
| CCCCCCC/C=C/C=C/C(=O)Nc1nc2cc(C)c(C)cc2s1 [Example 72] | 37 % of control | 30 % of control | – |
| CCCCCCC/C=C/C=C/C(=O)Nc1ccc(Oc2ccc(C(F)(F)F)cc2)cc1 [Example 84] | 30 % of control | 30 % of control | – |
